The source of these data is patent US20200069650A1, “DEXMEDETOMIDINE OR MEDETOMIDINE FOR USE IN TREATING SEPARATION ANXIETY IN DOGS” (Orion Corporation, priority 2016, published 2020).

The test concerns separation anxiety in dogs. As to conditions: Example 6: mixed breed dog, behavioural modification supported by fluoxetine.

Protocol: Oromucosal dexmedetomidine gel was then administered to buccal/gingival mucosa of the dog with a syringe using a dose of 125 μg/m^2 of dexmedetomidine hydrochloride about 15 minutes prior to unscheduled departures such as shopping and visiting friends.

As to `CNCCC(Oc1ccc(C(F)(F)F)cc1)c1ccccc1` (centres unmarked) [fluoxetine], the “effect of conventional therapy on regular daily work departures” value was “enabled trouble free leaving dog at home during regular daily work departures”. In addition, the “signs of separation anxiety at unscheduled departures under conventional therapy” value (before gel) is “still showed signs of sepration anxiety to unscheduled departures”.
